Source: ChEMBL document CHEMBL1137546, “The discovery of indole-derived long acting beta2-adrenoceptor agonists for the treatment of asthma and COPD” (Bioorg Med Chem Lett, 2007)

Experiments:
Homo sapiens = species on record: Homo sapiens; assay: Ratio of EC50 for human recombinant adrenergic beta-2 receptor to EC50 for human recombinant adrenergic beta-1 receptor
[1] = target: Beta-2 adrenergic receptor (Homo sapiens, UniProt P07550)
Description: Agonist activity at human recombinant adrenergic beta-2 receptor expressed in CHO cells assessed as elevation in cAMP levels

[2] = Lipophilicity, log D of the compound; format: physicochemical; conditions: octanol/water
[3] = Protein binding in rat plasma; format: ADME, cell-free; conditions: read-out: PPB (converted)
[4] = Metabolic stability in human liver microsomes; format: ADME, Microsome
[5] = Volume of distribution in iv dosed rat; format: ADME, organism-based; conditions: in vivo
[6] = Apparent permeability from apical to basolateral side of human Caco-2 cell membrane; format: ADME, cell-based
[7] = Apparent permeability from basolateral to apical side of human Caco-2 cell membrane; format: ADME, cell-based
[8] = Oral bioavailability po dosed rat; format: ADME, organism-based; conditions: in vivo
[9] = Half life in iv dosed rat; format: ADME, organism-based; conditions: in vivo
[10] = Total clearance in iv dosed rat; format: ADME, organism-based; conditions: in vivo
Rattus norvegicus = assay: Unbound clearance in iv dosed rat; format: ADME, organism-based; conditions: in vivo

Beta-2 adrenergic receptor, sequence (P07550 whole entry): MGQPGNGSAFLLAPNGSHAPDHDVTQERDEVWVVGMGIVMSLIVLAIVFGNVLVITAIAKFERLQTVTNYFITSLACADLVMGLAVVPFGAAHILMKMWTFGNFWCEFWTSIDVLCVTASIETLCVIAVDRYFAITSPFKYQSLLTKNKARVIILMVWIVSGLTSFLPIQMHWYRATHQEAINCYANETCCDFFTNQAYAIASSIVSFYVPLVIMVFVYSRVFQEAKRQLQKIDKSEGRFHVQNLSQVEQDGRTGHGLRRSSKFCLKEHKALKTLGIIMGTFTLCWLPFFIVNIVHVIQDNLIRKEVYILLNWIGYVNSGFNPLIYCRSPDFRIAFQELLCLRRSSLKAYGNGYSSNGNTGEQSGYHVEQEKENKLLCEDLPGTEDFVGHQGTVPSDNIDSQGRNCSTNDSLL

| Ratio EC50 (Homo sapiens) | EC50 [1] [nM] | logD [2] | Structure (SMILES) | also measured |
| --- | --- | --- | --- | --- |
| 585 | 0.058 | 2.2 | C[C@H](Cc1ccc2[nH]c(C(=O)N[C@H](C)c3ccccc3)cc2c1)NC[C@H](O)c1ccc(O)c(CO)c1 |  |
| 5740 | 0.258 |  | CC[C@H](Cc1ccc2[nH]c(C(=O)NCc3c(OC)cccc3OC)cc2c1)NC[C@H](O)c1ccc(O)c(CO)c1 |  |
| 1080 | 0.706 |  | COc1cccc(OC)c1CNC(=O)c1cc2cc(C[C@@H](C)NC[C@H](O)c3ccc(O)c(CO)c3)ccc2n1C |  |
|  |  | 2.1 | OCc1cc([C@@H](O)CNCCCCCCOCCCCc2ccccc2)ccc1O [SALMETEROL] |  |
| 42 | 0.122 |  | C[C@H](Cc1ccc2[nH]c(C(=O)NCc3ccc(S(N)(=O)=O)cc3)cc2c1)NC[C@H](O)c1ccc(O)c(CO)c1 |  |
| 1240 |  | 2.2 | COc1ccccc1CNC(=O)c1cc2cc(C[C@@H](C)NC[C@H](O)c3ccc(O)c(CO)c3)ccc2[nH]1 |  |
| 254 | 2.55 |  | CCn1c(C(=O)NCc2c(OC)cccc2OC)cc2cc(C[C@@H](C)NC[C@H](O)c3ccc(O)c(CO)c3)ccc21 |  |
| 480 | 0.049 |  | C[C@H](Cc1ccc2[nH]c(C(=O)NCc3ccccc3)cc2c1)NC[C@H](O)c1ccc(O)c(CO)c1 |  |
| 882 | 0.022 | 2.1 | C[C@H](Cc1ccc2[nH]c(C(=O)N(C)Cc3ccccc3)cc2c1)NC[C@H](O)c1ccc(O)c(CO)c1 |  |
| 296 | 0.053 |  | C[C@H](Cc1ccc2[nH]c(C(=O)NCc3c(F)cccc3F)cc2c1)NC[C@H](O)c1ccc(O)c(CO)c1 |  |
| 75 | 0.164 |  | C[C@H](Cc1ccc2[nH]c(C(=O)NCc3ccc(O)cc3)cc2c1)NC[C@H](O)c1ccc(O)c(CO)c1 |  |
| 237 | 0.687 |  | COc1cccc(OC)c1CNC(=O)c1cc2cc(C[C@@H](C)NC[C@H](O)c3ccc(O)c(CO)c3)ccc2n1Cc1ccccc1 |  |
| 4040 | 0.058 | 2.2 | COc1cccc(OC)c1CNC(=O)c1cc2cc(C[C@@H](C)NC[C@H](O)c3ccc(O)c(CO)c3)ccc2[nH]1 | fraction unbound [3]: 0.1; half-life [4]: 4 min; Vd [5]: 18 L/kg; Papp A→B [6]: < 1 ×10⁻⁶ cm/s; Papp B→A [7]: 14 ×10⁻⁶ cm/s; bioavailability [8]: < 5%; half-life [9]: 96 min; clearance [10]: 130 mL/min/kg; CL (Rattus norvegicus): 1200 mL/min/kg |
| 332 | 0.038 |  | CSc1ccccc1CNC(=O)c1cc2cc(C[C@@H](C)NC[C@H](O)c3ccc(O)c(CO)c3)ccc2[nH]1 |  |

| Structure (SMILES) | Ratio EC50 (Homo sapiens) | EC50 [1] [nM] | logD [2] | also measured |
| --- | --- | --- | --- | --- |
| C[C@H](Cc1ccc2[nH]c(C(=O)NCc3nccs3)cc2c1)NC[C@H](O)c1ccc(O)c(CO)c1 | 1340 | 0.031 | 0.8 |  |
| C[C@H](Cc1ccc2[nH]c(C(=O)NCc3ccccn3)cc2c1)NC[C@H](O)c1ccc(O)c(CO)c1 | 1530 | 0.038 |  |  |
| COc1cccc(CCNC(=O)c2cc3cc(C[C@@H](C)NC[C@H](O)c4ccc(O)c(CO)c4)ccc3[nH]2)c1 | 35 | 0.254 | 2 |  |
| C[C@H](Cc1ccc2[nH]c(C(=O)NCC3CCC3)cc2c1)NC[C@H](O)c1ccc(O)c(CO)c1 | 410 | 0.051 | 1.9 |  |
